This note sets out measurements from patent US20200291127A1, “ANTIBODIES AND METHODS OF USE THEREOF” (AbeXXa Biologics, Inc., priority 2020, published 2020).

In the experiment the target is HLA-E*0103 (Homo sapiens, UniProt P13747). Briefly: HLA-E peptide refolding into monomer complexes. It counts as biochemical.

For YLLPAIVHI, the “refolding of HLA-E*0103/peptide” value is “successfully refold HLA-E*0103/peptide into stable monomer complexes”.
